Measured values: patent EP0559845B1, “Use of compounds in preventing endotoxin shock” (priority 1991, dated 1992)
“Also recorded” adds a separate entry of the source.

Legend:
sheep [1] = conditions: 40-1000 µg/kg; reported in the literature; cited from earlier work
sheep [2] = assay: Protection of sheep against the lethal effects of intravenous lipopolysaccharide; format: in vivo
Description: (§1) Mixed breed sheep weighing 30-70 kg were obtained from the University of Wisconsin Experimental Farms. Sheep were prepared as follows: at least 24 hours before each experiment, catheters were percutaneously placed in the pulmonary artery. Any other catheterizations that were required for infusion were done at this time. All studies were performed on awake, unrestrained sheep placed in portable stanchions with food and water ad libitum. Electronically calculated pulmonary artery pressures as well as heart rates were recorded at various intervals on a polygraph. To ensure a stable baseline prior to the injection of test compounds, approximately 1 hour of baseline measurements were recorded.
In view of the partial protection afforded by lipid X against LPS-induced lethality in mice, the possibility of such protection was also examined in sheep. The sheep system has the important advantage of permitting the administration of much larger doses of lipid X relative to LPS. It is the ratio of lipid X to endotoxin that is critical for survival. […] It is evident that a 5-10 fold excess of lipid X (on a weight basis) over LPS is required to ensure survival. (Because of the inherent LPS resistance of mice, their small body volume, and the limited solubility of lipid X in water, it is impossible to achieve 5-10 fold excess of lipid X relative to LPS in the mouse system.)

mice (strain C57BL/10) = assay: Protection of mice against lethal endotoxemia; format: in vivo; conditions: for mice survived: intravenous
Description: Eight week old mice (strain C57BL/10) were allowed to rest for at least 7 days following their arrival and were sexually segregated and housed at 5 per cage with food and water ad libitum. Intravenous injection of a GTPase inhibiting compound (lipid X dissolved in saline as described above) and/or lipopolysaccharide was achieved by the retroorbital sinus route using a 27 gauge needle. No more than 0.1 ml of fluid was injected at a time. Just prior to injection, the mice were lightly anesthetized with ether. Following the injection, mice were observed every 0.5-6 hours and the time of death was recorded. In a few experiments, mice were injected by the intraperitoneal route with solutions of lipid X and/or lipopolysaccharide similar to those described above.
The lethal dose of E. coli endotoxin was determined both for the intravenous and for the intraperitoneal challenge. The lethal dose that killed 100% of the mice (LD100) was 250 µg intravenously and 500 µg intraperi toneally. (It is important to standardize each lot of endotoxin with each lot of mice.) To determine the approximate dose of lipid X needed to protect against a lethal challenge of endotoxin, mice were pretreated with lipid X intraperitoneally 2 hours before challenge with 1500 µg of endotoxin, which is 3 times the LD100 dose. Pretreatment of mice with lipid X appeared to prolong the time to death four-fold (from about 20 hours to 80 hours).
Because both lipid X and lipopolysaccharide (LPS) were given intraperitoneally in these preliminary experiments, the possibility existed of slow or variable rates of absorption. Consequently, an intravenous challenge route was selected to test for protective efficiency. Mice were given 750 µg of lipid X from 24 hours prior to 6 hours after endotoxin challenge with 1-2 LD100 doses. Forty-one percent of mice receiving 500 µg lipid X from 6 hours prior to endotoxin challenge through 1 hour after LPS challenge survived. When a lower endotoxin challenge dose (250 µg) was used, 81% of the mice survived if treated with lipid X from 1 hour prior to through 4 hours post LPS challenge. […] Perhaps this is due to the fact that those animals were anesthetized twice in a short period and received the toxic endotoxin challenge before receiving lipid X. The reversal of the lethal toxicity of endotoxin at times as late as 4 hours after endotoxin challenge is especially striking. […] By 4 hours after injection of the 250 µg of intravenous lipopolysaccharide, the mice had stopped normal behavior, i.e. nesting had stopped, decreased spontaneous activity occurred, and the animals were shaking.

sheep [3] = assay: Toxicity of lipid X in sheep; format: in vivo; conditions: 40 sheep injected
Description: as §1
To test for the toxicity of lipid X in mice, C57BL/10 mice were challenged with 750, 2000 or 5000 µg of lipid X intraperitoneally (12 mice) or with 750, 1500 or 3000 µg intravenously (7 mice). […] Consequently, lipid X appeared to be nontoxic in mice, as in sheep.
About 30 sheep were examined by Burhop with regard to lipid X toxicity.

[4] = system: LPS-induced GTPase activity in membranes isolated from RAW 264.7 cells; assay: GTPase assay: effect of compounds on LPS-stimulated GTPase activity in macrophage membranes (release of 32Pi from γ-32P-GTP); format: biochemical
Source text: We sought to directly evaluate the influence of LPS on possible G-protein function by examining agonist-enhanced GTPase activity, which is a hallmark of G-protein action. Moreover, because macrophages are one of the key cell types in the release of toxic mediators following an LPS challenge, we first assessed the capacity of LPS to influence GTPase activity in membranes isolated from RAW 264.7 cells, which is a highly LPS-responsive macrophage cell line. In these studies, GTPase activity was measured using a standard assay. The activity was determined using 2 µM γ-^32P-GTP in the presence of 0.1 mM ATP and 0.2 mM of the non-hydrolyzable ATP analog, AMPPNP, in order to minimize nonspecific nucleotidase activity in the membrane preparations.
The reaction is initiated by the addition of the γ-^32P-GTP and the mixture incubated at 30-37°C for 15 to 30 minutes. The reaction is terminated by the addition of 500µl of 5% trichloroacetic acid and 500µl of 0.1gm/ml acid-activated charcoal in 5% trichloroacetic acid. The samples are centrifuged at 14,000xg for 10 minutes, and a 550µl aliquot of the supernatant is removed for scintillation counting. The supernatant will contain the released ^32Pi. The extent of GTPase inhibition is measured by the decrease in the amount of ^32Pi released from γ-^32P-GTP. Appropriate controls include mixtures with one of the following omitted: (i) test compound, (ii) endotoxin, and (iii) ATP, ADP or AMPPNP.
The membranes are resuspended in 20 mM HEPES (pH 7.4), 1 mM dithiothreitol, 1 mM EDTA and 10 µg leupeptin/ml. Aliquots are stored at -70°C until assayed.

## CCCCCCCCCCC[C@@H](O)CC(=O)N[C@H]1[C@@H](OP(=O)(O)O)O[C@H](CO)[C@@H](O)[C@@H]1OC(=O)C[C@H](O)CCCCCCCCCCC [lipid X]
Sheep [1]
  illness after lipid X by itself: does not create marked illness or fever
Sheep [2]; 100-200 µg/kg of lipid X during the pretreatment period
  survival of subsequent LPS challenge: survived
Sheep [2]; Lipid X 50 µg/kg 1 hour prior to endotoxin, Lipopolysaccharide 20 µg/kg
  Survivors: 1/2
Sheep [2]; Lipid X 100 µg/kg 15 min. prior to endotoxin, Lipopolysaccharide 10 µg/kg
  Survivors: 3/3
Sheep [2]; Lipid X 100 µg/kg 1 hour prior to endotoxin, Lipopolysaccharide 20 µg/kg
  Survivors: 4/4
Sheep [2]; Lipid X 200 µg/kg 1 hour prior to endotoxin, Lipopolysaccharide 20 µg/kg
  Survivors: 3/3
Sheep [2]; in vivo
  excess of lipid X over LPS required to ensure survival: 5-10 fold excess (on a weight basis
Sheep [2]; pretreatment with lipid X
  effect on pulmonary hypertension or fever induced by LPS: does not completely prevent
  effect on serious clinical symptoms (shortness of breath, weakness, diarrhea): alleviates some of the serious clinical symptoms
Mice (strain C57BL/10); endotoxin challenge 250 µg, lipid X from 1 hour prior through 4 hours post LPS challenge
  mice survived: 81%
Mice (strain C57BL/10); printed '500 µg lipid X', from 6 hours prior to endotoxin challenge through 1 hour after
  mice survived: Forty-one
Mice (strain C57BL/10); lipid X given 6 hours after lipopolysaccharide
  prevention of lethal endotoxicity on late treatment: appears to prevent lethal endotoxicity
Mice (strain C57BL/10); lipid X intraperitoneally 2 hours before 1500 µg endotoxin
  prolongation of the time to death: four-fold
Mice (strain C57BL/10); lipid X intraperitoneally 2 hours before 1500 µg endotoxin (3 times LD100), control about 20 hours
  time to death: ~80 h
Sheep [3]
  adverse complications of lipid X administration: no serious adverse complications
[4]
  inhibition of LPS-stimulated GTPase activity: dose-dependent inhibition; also recorded: dose-dependently inhibiting
[4]; LPS 300 µg/ml or 1 mg/ml
  half-maximal inhibition of LPS-enhanced GTPase activity: 23 to 1 molar ratio of lipid X to LPS
